Values after ≈ are worked out from the molar mass of the structure shown.
Columns and labels:
[1] = Cytotoxicity in tissue culture testing (HeLa monolayers); assay type: cell-based; conditions: human; HeLa cells; observed at 48 and 72 hours post-treatment; read-out: Cytotoxicity: concentration of the compound found to be toxic to the cell
Method: (§1) Monolayered HeLa cells in 16 millimeter (mm) tissue culture dishes were treated with 1 ml of culture medium (Eagles medium supplemented with fetal calf serum) containing subject compound at an appropriate concentration or containing no compound at all. Culture media such as those described herein are more fully described in standard texts, as for example, Kuchler's Biochemical Methods in Cell Culture and Virology, Dowden, Hutchinson and Ross, Inc., Stroudsberg, PA (1977). Following treatment, cells were challenged with 0.05 ml of rhinovirus type 1A (RV-1A), rhinovirus type 2 (RV-2) or Coxsackie A21 virus (Cox A21) in culture medium. Some of the compounds were also tested against rhinovirus type 5 (RV-5), rhinovirus type 8 (RV-8) or rhinovirus type 64 (RV-64). Cell controls received no viruses.
^1 Cytotoxicity figures represent the concentration of the compound, […]

[2] = system: rhinovirus type 1A (RV-1A); assay: Tissue culture testing, rhinovirus type 1A in HeLa cells; assay type: cell-based; conditions: Enterovirus, 48 and 72 hours, NA = not active at the standard test conditions, read-out: RV-1A: lowest concentration of the compound necessary to cause a 50 percent reduction in cytopathic effect
Method: as §1
(§2) ^2 Lowest concentration of the compound (μg/ml) necessary to cause

rhinovirus type 2 (RV-2) = assay: Tissue culture testing, rhinovirus type 2 in HeLa cells; assay type: cell-based; conditions: Enterovirus, 48 and 72 hours, NA = not active at the standard test conditions, read-out: RV-2: lowest concentration of the compound necessary to cause a 50 percent reduction in cytopathic effect
Method: as §1, §2

Cox A21 = assay: Single Oral Dose test in mice challenged IP with Cox A21; assay type: in vivo, Swiss male mice; conditions: >3.84 significant (95% confidence level)
Method: In addition, some of the compounds were tested in animals utilizing the following procedure, hereinafter referred to as the "Single Oral Dose" test. Swiss male mice, 8-12 grams in weight were challenged intraperitoneally (IP) with 0.2 ml of a normally lethal dose, i.e., a virus dose sufficient to cause […].80-100% mortality in infected animals within 10 days of challenge of Cox A21, in phosphate buffered saline containing 1% heat inactivated fetal calf serum. Three hours later mice were treated orally (P.O.) with 0.2 ml of compound suspended in 0.5% hydroxypropyl methylcellulose (Methocel) or with 0.2 ml of 0.5% Methocel containing no compound. […] Mice were observed daily for 7-10 days post-challenge and deaths recorded. A modified Mantel-Haenzel combined chi-square procedure was used to determine significant difference between virus control and treated groups. Chi-square values greater than 3.84 are considered significant (95% confidence level) in this test.

Coxsackie A21 virus = assay: Continuous Oral Feeding test in mice challenged IP with Coxsackie A21 virus; assay type: in vivo; conditions: po, 0.06 % in diet, 240 h
Method: Some of the compounds were also tested in animals utilizing the following procedure, hereainafter referred to as the "Continuous Oral Feeding" test. Coxsackie A21 virus grown on HeLa cells was administered at a concentration that produces 80 to 100% deaths in mice weighing 8 to 12 grams within 10 days, when the mice are injected (IP) with 0.2 ml of virus preparation. Mice were placed on diets containing test compound dispersed in plain commercially available rodent mash chow at a concentration of 0.06% (weight percent) on day 0. On day 1 the mice were challenged with the virus preparation, 0.2 ml/mouse, (IP). Deaths in both control and experimental groups were recorded for the 10 days and the results analyzed by a chi-square (.chi.^2) test. Chi-square values greater than 3.84 indicate the compound is active (95% confidence level).

[3] = system: 20 different rhinoviruses; assay: Summary of WI-38 tissue culture testing against 20 rhinoviruses; assay type: cell-based; conditions: of 20 rhinoviruses
Method: The test compound was dissolved in an appropriate solvent (generally dimethyl sulfoxide) and incubated at 56° C. for at least 15 minutes and this solution was then used to prepare various test solutions having the desired concentration of test compound in preheated WI maintenance medium (49% Eagles, 49% medium 199, 2% fetal calf serum and antibiotics).
Triplicate cell culture tubes (WI-38 human embryonic lung cell culture tubes) were fed with 1 ml of medium containing the compound at specified concentrations and inoculated with 3-300 TCID50 (3-300 times the tissue culture infective dose 50, i.e., the dose required to infect 50% of the cell cultures tested). Simultaneous viral titrations were performed. The tissue cultures were supplemented with fresh medium when necessary (around 3-4 days) until viral titrations were completed.
The cell culture tubes were examined dialy for cytopathic effect. […] Comparisons were made at that time with the percentage of cell sheet destruction in tubes containing virus compound mixtures. Observed differences of 75% or more were graded "+", 74-50% as "±", and less than 50% as "-" inhibition.

[4] = system: Coxsackie A21 virus (Cox A21); assay: Tissue culture testing, Coxsackie A21 virus in HeLa cells; assay type: cell-based; conditions: 48 and 72 hours, NA = not active at the standard test conditions, read-out: Cox A21: lowest concentration of the compound necessary to cause a 50 percent reduction in cytopathic effect
Method: as §1, §2

[5] = system: rhinovirus type 64 (RV-64); assay: Tissue culture testing, rhinovirus type 64 in HeLa cells; assay type: cell-based; conditions: Enterovirus, 48 and 72 hours, NA = not active at the standard test conditions, read-out: RV-64: lowest concentration of the compound necessary to cause a 50 percent reduction in cytopathic effect
Method: as §1, §2

[6] = 600 mg/kg P.O. 3 h after IP challenge

Compound | MCC [1] [µg/mL] | EC50 [2] [µg/mL] | EC50 (rhinovirus type 2 (RV-2)) [µg/mL] | Single Oral Dose X^2 (chi-square, deaths vs virus control) (Cox A21; [6]) | Continuous Oral Feeding X^2 (chi-square, deaths vs control) (Coxsackie A21 virus) | number of test rhinoviruses against which the compound was graded "+" ([3]; 12.5 μg/ml) [test rhinoviruses] | number of test rhinoviruses against which the compound was graded "±" ([3]; 12.5 μg/ml) | number of test rhinoviruses against which the compound was graded "+" ([3]; 25 μg/ml) [test rhinoviruses] | number of test rhinoviruses against which the compound was graded "±" ([3]; 25 μg/ml) | EC50 [4] [µg/mL] | EC50 [5] [µg/mL] | Single Oral Dose X^2 (chi-square, deaths vs virus control) (Cox A21; 400 mg/kg P.O. 3 h after IP challenge)
CS(=O)(=O)c1cccc(Oc2ccc(Cc3ccccc3)cc2)n1 [Example 69, 2-(methylsulfonyl)-6-(4-(phenylmethyl)phenoxy)pyridine] | 5 | 0.625 (≈ 1.84 µM) | 2.5 (≈ 7.37 µM) | 3.510 | 0.776 |  |  |  |  |  |  | 
CS(=O)(=O)c1ccc(Oc2ccc(Cl)cc2)nc1 [2-(4-chlorophenoxy)-5-(methylsulfonyl)pyridine] |  |  |  |  |  | 13 | 3 |  |  |  |  | 
CCS(=O)(=O)c1ccc(Oc2ccc(Cl)cc2)nc1 [2-(4-chlorophenoxy)-5-(ethylsulfonyl)pyridine] |  |  |  |  |  | 13 | 4 |  |  |  |  | 
CS(=O)(=O)c1ccc(Oc2ccc(Cl)c(Cl)c2)nc1 [2-(3,4-dichlorophenoxy)-5-(methylsulfonyl)pyridine] |  |  |  |  |  |  |  | 14 | 2 |  |  | 
CS(=O)(=O)c1cccc(Oc2ccc(C(=O)c3ccccc3)cc2)n1 [Example 68] | 12.5 | 6.25 (≈ 17.7 µM) | 6.25 (≈ 17.7 µM) | 0.362 | 0.680 |  |  |  |  | 6.25 (≈ 17.7 µM) |  | 
C[S+]([O-])c1ccc(Oc2ccc(Cl)c(Cl)c2)nc1 (centres unmarked) [Example 39, 2-(3,4-dichlorophenoxy)-5-(methylsulfinyl)pyridine] | 25 | 0.625 (≈ 2.07 µM) | 1.25 (≈ 4.14 µM) |  |  |  |  |  |  | 25 (≈ 82.7 µM) | 1.25 (≈ 4.14 µM) | 
CCSc1ccc(Oc2ccc(Cl)c(Cl)c2)nc1 [Example 45, 2-(3,4-dichlorophenoxy)-5-(ethylthio)pyridine] | 12.5 | 2.5 (≈ 8.33 µM) | 2.5 (≈ 8.33 µM) |  |  |  |  |  |  | 3.12 (≈ 10.4 µM) | 5 (≈ 16.7 µM) | 
CCS(=O)(=O)c1ccc(Oc2ccc(Cl)c(Cl)c2)nc1 [2-(3,4-dichlorophenoxy)-5-(ethylsulfonyl)pyridine] |  |  |  |  |  |  |  | 14 | 3 |  |  | 
CS(=O)(=O)c1ccc(Oc2ccc(SC(F)(F)F)cc2)nc1 [Example 27, 5-(methylsulfonyl)-2-(4-((trifluoromethyl)thio)phenoxy)pyridine] | ≥ 100 | 12.5 (≈ 35.8 µM) | < 6.25 | 39.700 | 29.753 |  |  |  |  | < 6.25 | < 6.25 | 
O=S(=O)(Cc1ccccc1)c1ccc(Oc2ccc(Br)cc2)nc1 [Example 64, 2-(4-bromophenoxy)-5-((phenylmethyl)sulfonyl)pyridine] | ≥ 100 |  | 50 (≈ 124 µM) | 0.483 | 2.985 |  |  |  |  |  |  | 
CC(C)S(=O)(=O)c1ccc(Oc2ccc(Br)cc2)nc1 [Example 50, 2-(4-bromophenoxy)-5-((1-methylethyl)sulfonyl)pyridine] | 12.5 | 1.25 (≈ 3.51 µM) | 1.25 (≈ 3.51 µM) | 10.040 | 1.243 |  |  |  |  | 1.25 (≈ 3.51 µM) | 2.5 (≈ 7.02 µM) | 
O=S(=O)(Cc1ccccc1)c1ccc(Oc2ccc(Cl)c(Cl)c2)nc1 [Example 63, 2-(3,4-dichlorophenoxy)-5-((phenylmethyl)sulfonyl)pyridine] | 25 | 5 (≈ 12.7 µM) | 10 (≈ 25.4 µM) | 0.733 | 4.106 |  |  |  |  | 10 (≈ 25.4 µM) |  | 
CS(=O)(=O)c1ccc(Oc2cccc(C#N)c2)nc1 [Example 36, 3-((5-(methylsulfonyl)-2-pyridinyl)oxy)benzonitrile] | > 100 | 12.5 (≈ 45.6 µM) | 50 (≈ 182 µM) | 2.20 | 3.447 |  |  |  |  | 50 (≈ 182 µM) | 50 (≈ 182 µM) | 
CC[S+]([O-])c1ccc(Oc2ccc(Cl)c(Cl)c2)nc1 (centres unmarked) [Example 46, 2-(3,4-dichlorophenoxy)-5-(ethylsulfinyl)pyridine] | 12.5 | < 3.12 | < 3.12 |  |  |  |  |  |  | 12.5 (≈ 39.5 µM) | 5 (≈ 15.8 µM) | 
CC(C)S(=O)(=O)c1ccc(Oc2ccc(Cl)c(Cl)c2)nc1 [Example 49, 2-(3,4-dichlorophenoxy)-5-((1-methylethyl)sulfonyl)pyridine] | 12.5 | < 0.312 | 0.625 (≈ 1.81 µM) |  | 3.851 |  |  |  |  | 0.625 (≈ 1.81 µM) | 0.625 (≈ 1.81 µM) | 0.004
CS(=O)(=O)c1ccc(Oc2cccc(Br)c2)nc1 [Example 35, 2-(3-bromophenoxy)-5-(methylsulfonyl)pyridine] | > 100 | < 6.25 | 12.5 (≈ 38.1 µM) | 1.604 | 0.197 |  |  |  |  | 50 (≈ 152 µM) | 6.25 (≈ 19 µM) | 
O=S(=O)(c1ccccc1)c1ccc(Oc2ccc(Cl)c(Cl)c2)nc1 [Example 60, 2-(3,4-dichlorophenoxy)-5-(phenylsulfonyl)pyridine] | ≥ 100 | 5 (≈ 13.1 µM) | 10 (≈ 26.3 µM) | 0.839 | 0.970 |  |  |  |  | 10 (≈ 26.3 µM) |  | 
O=S(=O)(c1ccccc1)c1ccc(Oc2ccc(Br)cc2)nc1 [Example 61, 2-(4-bromophenoxy)-5-(phenylsulfonyl)pyridine] | 20 | 10 (≈ 25.6 µM) | 10 (≈ 25.6 µM) | 4.401 | 3.328 |  |  |  |  | 5 (≈ 12.8 µM) |  | 
CS(=O)(=O)c1ccc(Oc2ccc(C(=O)c3ccccc3)cc2)nc1 [(4-((5-(methylsulfonyl)-2-pyridinyl)oxy)phenyl)phenylmethanone] |  |  |  |  |  |  |  | 13 | 3 |  |  | 
CCCCCCS(=O)(=O)c1ccc(Oc2ccc(C(=O)c3ccccc3)cc2)nc1 [Example 55, (4-((5-(n-hexylsulfonyl)-2-pyridinyl)oxy)phenyl)phenylmethanone] | 12.5 | 3.12 (≈ 7.38 µM) | 12.5 (≈ 29.5 µM) | 0.190 |  |  |  |  |  | 3.12 (≈ 7.38 µM) |  | 
